Experimental data as given in patent publication US8828401B2, “Cytotoxic peptides and antibody drug conjugates thereof” (Pfizer Inc., priority 2011, dated 2014).
Starred links: 1 amine or outer side, 2 acyl side, 3 side chain; linkers in the order of their positions; H or OH if unused. Non-standard residues stand in square brackets, D forms with d. Residues, ends and D or L forms follow the SMILES beside them. *: point of attachment. Dolaproine = CO[C@@H]([C@@H]1CCCN1)[C@@H](C)C(=O)O; X5 = O=C([C@@H](N[*:1])C1(c2ccccc2)CC1)[*:2]; Dil = CC[C@H](C)[C@H](NC)[C@@H](CC(=O)O)OC; X7 = C[C@@]1(C(=O)[*:2])CCCCN1[*:1]; Doe = c1ccc(C[C@H](N*)c2nccs2)cc1; Ac4c(3-oxa) = NC1(C(=O)O)COC1; NHPhenethyl = c1ccc(CCN*)cc1; αMeV = CC(C)[C@](C)(N)C(=O)O; αMeP = C[C@@]1(C(=O)O)CCCN1; NMeAib = CNC(C)(C)C(=O)O; Ac5c = NC1(C(=O)O)CCCC1; X4 = CN(C)C(C)(C)C(=O)*; Aib = CC(C)(N)C(=O)O

Columns and labels:
Type in all cases: cell-based
[1] = tested on: MDA-MB-361-DYT2 (breast cancer); test: In vitro cell assay, MTS cell viability 96 hours after treatment; conditions: read-out: MDA-MB-361-DYT2 GMEAN IC50, MDA-MB-361-DYT2 cells; geometric mean; cytotoxic peptides
How it was run: (§1)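 Cells are exposed to 3-fold dilution series (10 points, duplicate wells) of ADC or free compound lacking antibody. After 96 hours, an MTS assay quantifies viability relative to untreated cells.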

[2] = tested on: N87 (gastric cancer); test: as above; conditions: read-out: N87 GMEAN IC50, N87 cells; geometric mean; cytotoxic peptides
How it was run: as §1

[3] = tested on: BT474 (breast cancer); test: as above; conditions: Homo sapiens, BT-474, BT474 cells; geometric mean; cytotoxic peptides; read-out: BT474 GMEAN IC50
How it was run: as §1

[4] = tested on: MDA-MB-468 (breast cancer); test: In vitro cytotoxicity assay with anti-Notch ADCs (MTS); conditions: average of 2-4 repeats where ± S.E.M. is given
Method: The effects of anti-Notch ADCs were assessed on 1) cell lines endogenously expressing Notch protein: HCC2429 (lung cancer), OVCAR3 (ovarian cancer) and MDA-MB-468 (breast cancer), 2) cell lines engineered to over-express Notch protein: MDA-MB-468/hNotch and U2OS/hNotch, and 3) a negative control cell line (SW900) using an MTS cellular viability indicator (Promega, Madison, Wis.). These cell lines were cultured with increasing concentrations of anti-Notch ADCs comprising humanized anti-Notch antibodies, hu28 and hu75, and rat-human chimeric anti-Notch antibodies, ch28 and ch75, conjugated to various linker-payload combinations of the present invention. As a specificity control for the anti-Notch-ADCs, non-targeted control-ADCs (huNeg8.8-ADCs or ch2H6-ADCs) were also tested on the same cell lines. After four days, viability of each culture was assessed. IC50 values were calculated by logistic non-linear regression and presented as ng Ab/mL. The drug antibody ratio (DAR) is also provided.

Q: With `CC[C@H](C)[C@@H]([C@@H](CC(=O)N1CCC[C@H]1[C@H](OC)[C@@H](C)C(=O)NCCc1ccccc1)OC)N(C)C(=O)[C@@H](NC(=O)C1(N)COC1)C(C)C` [#75, N^2-[(3-aminooxetan-3-yl)carbonyl]-N-{(3R,4S,5S)-3-methoxy-1-[(2S)-2-{(1R,2R)-1-methoxy-2-methyl-3-oxo-3-[(2-phenylethyl)amino]propyl}pyrrolidin-1-yl]-5-methyl-1-oxoheptan-4-yl}-N-methyl-L-valinamide] (H-[Ac4c(3-oxa)]V[Dil][Dolaproine]-NHPhenethyl) as the molecule, how does the IC50 [1] read?
A: > 100 nM

Q: What about the IC50 [2] of the same molecule?
A: > 100 nM

Q: What about the IC50 [3] of the same molecule?
A: > 100 nM

Q: Which results are given for `CC[C@H](C)[C@@H]([C@@H](CC(=O)N1CCC[C@H]1[C@H](OC)[C@@H](C)C(=O)N[C@H](C(=O)OC)C1(c2ccccc2)CC1)OC)N(C)C(=O)[C@@H](NC(=O)C(C)(C)N)C(C)C` [#223] (H-[Aib]V[Dil][Dolaproine][X5]-OMe)?
A: IC50 [1]: 10.9 nM; IC50 [2]: 13 nM; IC50 [3]: 7.59 nM

Q: For `CC[C@H](C)[C@@H]([C@@H](CC(=O)N1CCC[C@H]1[C@H](OC)[C@@H](C)C(=O)N[C@@H](Cc1ccccc1)c1nccs1)OC)N(C)C(=O)[C@@H](NC(=O)C1(N)CCCC1)C(C)C` [#47, N^2-[(1-aminocyclopentyl)carbonyl]-N-[(3R,4S,5S)-3-methoxy-1-{(2S)-2-[(1R,2R)-1-methoxy-2-methyl-3-oxo-3-{[(1S)-2-phenyl-1-(1,3-thiazol-2-yl)ethyl]amino}propyl]pyrrolidin-1-yl}-5-methyl-1-oxoheptan-4-yl]-N-methyl-L-valinamide] (H-[Ac5c]V[Dil][Dolaproine]-Doe), which IC50 [1] is on record?
A: 0.317 nM

Q: What about the IC50 [2] of the same molecule?
A: < 0.256 nM

Q: What about the IC50 [3] of the same molecule?
A: < 0.244 nM

Q: `CC[C@H](C)[C@@H]([C@@H](CC(=O)N1CCC[C@H]1[C@H](OC)[C@@H](C)C(=O)N[C@@H](Cc1ccccc1)C(=O)OC)OC)N(C)C(=O)[C@@H](NC(=O)[C@@](C)(N)C(C)C)C(C)C` [#147, 3-methyl-L-isovalyl-N-{(1S,2R)-4-{(2S)-2-[(1R,2R)-3-{[(1S)-1-benzyl-2-methoxy-2-oxoethyl]amino}-1-methoxy-2-methyl-3-oxopropyl]pyrrolidin-1-yl}-2-methoxy-1-[(1S)-1-methylpropyl]-4-oxobutyl}-N-methyl-L-valinamide] (H-[αMeV]V[Dil][Dolaproine]F-OMe) was tested. Which IC50 [1] did it give?
A: 0.421 nM

Q: What about the IC50 [2] of the same molecule?
A: 0.144 nM

Q: And the IC50 [3]?
A: 0.456 nM

Q: Which IC50 [1] does the source give for `CC[C@H](C)[C@@H]([C@@H](CC(=O)N1CCC[C@H]1[C@H](OC)[C@@H](C)C(=S)N[C@@H](Cc1ccccc1)c1nccs1)OC)N(C)C(=O)[C@@H](NC(=O)C1(N)CCCC1)C(C)C` [#30, N^2-[(1-aminocyclopentyl)carbonyl]-N-[(3R,4S,5S)-3-methoxy-1-{(2S)-2-[(1R,2R)-1-methoxy-2-methyl-3-{[(1S)-2-phenyl-1-(1,3-thiazol-2-yl)ethyl]amino}-3-thioxopropyl]pyrrolidin-1-yl}-5-methyl-1-oxoheptan-4-yl]-N-methyl-L-valinamide] here?
A: 1.85 nM

Q: And the IC50 [2]?
A: 6.71 nM

Q: What about the IC50 [3] of the same molecule?
A: 0.682 nM

Q: Which IC50 [1] does the source give for `CC[C@H](C)[C@@H]([C@@H](CC(=O)N1CCC[C@H]1[C@H](OC)[C@@H](C)C(=O)N[C@@H](Cc1ccccc1)C(=O)O)OC)N(C)C(=O)[C@@H](NC(=O)[C@]1(C)CCCN1)C(C)C` [#118, 2-methyl-L-prolyl-N-[(3R,4S,5S)-1-{(2S)-2-[(1R,2R)-3-{[(1S)-1-carboxy-2-phenylethyl]amino}-1-methoxy-2-methyl-3-oxopropyl]pyrrolidin-1-yl}-3-methoxy-5-methyl-1-oxoheptan-4-yl]-N-methyl-L-valinamide] (H-[αMeP]V[Dil][Dolaproine]F-OH) here?
A: ≥ 100 nM

Q: What about the IC50 [2] of the same molecule?
A: ≥ 100 nM

Q: What about the IC50 [3] of the same molecule?
A: ≥ 100 nM

Q: Which results are given for `CC[C@H](C)[C@@H]([C@@H](CC(=O)N1CCC[C@H]1[C@H](OC)[C@@H](C)C(=O)N[C@@H](Cc1ccccc1)C(=O)O)OC)N(C)C(=O)[C@@H](NC(=O)[C@]1(C)CCCCN1)C(C)C` [#162, N-{(2R,3R)-3-methoxy-3-[(2S)-1-{(3R,4S,5S)-3-methoxy-5-methyl-4-[methyl(N-{[(2S)-2-methylpiperidin-2-yl]carbonyl}-L-valyl)amino]heptanoyl}pyrrolidin-2-yl]-2-methylpropanoyl}-L-phenylalanine] (H-[X7]V[Dil][Dolaproine]F-OH)?
A: IC50 [1]: 27.8 nM; IC50 [2]: 21.6 nM; IC50 [3]: 31.4 nM

Q: `CC[C@H](C)[C@@H]([C@@H](CC(=O)N1CCC[C@H]1[C@H](OC)[C@@H](C)C(=S)N[C@@H](Cc1ccccc1)C(=O)OC)OC)N(C)C(=O)[C@@H](NC(=O)C(C)(C)NC)C(C)C` [#79, N,2-dimethylalanyl-N-[(3R,4S,5S)-3-methoxy-1-{(2S)-2-[(1R,2R)-1-methoxy-3-{[(2S)-1-methoxy-1-oxo-3-phenylpropan-2-yl]amino}-2-methyl-3-thioxopropyl]pyrrolidin-1-yl}-5-methyl-1-oxoheptan-4-yl]-N-methyl-L-valinamide] was tested. Which IC50 [1] did it give?
A: 0.129 nM

Q: And the IC50 [2]?
A: 0.137 nM

Q: What about the IC50 [3] of the same molecule?
A: 0.079 nM

Q: What does the source list for `CC[C@H](C)[C@@H]([C@@H](CC(=O)N1CCC[C@H]1[C@H](OC)[C@@H](C)C(=S)N[C@@H](Cc1ccccc1)C(=O)OC)OC)N(C)C(=O)[C@@H](NC(=O)[C@@H](NC)C(C)C)C(C)C` [#42, N-methyl-L-valyl-N-[(3R,4S,5S)-3-methoxy-1-{(2S)-2-[(1R,2R)-1-methoxy-3-{[(2S)-1-methoxy-1-oxo-3-phenylpropan-2-yl]amino}-2-methyl-3-thioxopropyl]pyrrolidin-1-yl}-5-methyl-1-oxoheptan-4-yl]-N-methyl-L-valinamide]?
A: IC50 [1]: 0.195 nM; IC50 [2]: 0.327 nM; IC50 [3]: 0.125 nM

Q: What does the source list for `CC[C@H](C)[C@@H]([C@@H](CC(=O)N1CCC[C@H]1[C@H](OC)[C@@H](C)C(=O)N[C@@H](Cc1ccc2c(c1)CCCN2)C(=O)OC)OC)N(C)C(=O)[C@@H](NC(=O)[C@@]1(C)CCCN1C)C(C)C` [#200, 1,2-dimethyl-D-prolyl-N-[(3R,4S,5S)-3-methoxy-1-{(2S)-2-[(1R,2R)-1-methoxy-3-{[(2S)-1-methoxy-1-oxo-3-(1,2,3,4-tetrahydroquinolin-6-yl)propan-2-yl]amino}-2-methyl-3-oxopropyl]pyrrolidin-1-yl}-5-methyl-1-oxoheptan-4-yl]-N-methyl-L-valinamide]?
A: IC50 [1]: 0.017 nM; IC50 [2]: 0.029 nM; IC50 [3]: 0.048 nM

Q: Which results are given for `CC[C@H](C)[C@@H]([C@@H](CC(=O)N1CCC[C@H]1[C@H](OC)[C@@H](C)C(=O)N[C@@H](Cc1c[nH]cn1)C(=O)OC)OC)N(C)C(=O)[C@@H](NC(=O)C(C)(C)NC)C(C)C` [#242] (H-[NMeAib]V[Dil][Dolaproine]H-OMe)?
A: IC50 [1]: 34.5 nM; IC50 [2]: 41.3 nM; IC50 [3]: 32.3 nM

Q: How did the IC50 [1] turn out when `CC[C@H](C)[C@@H]([C@@H](CC(=O)N1CCC[C@H]1[C@H](OC)[C@@H](C)C(=O)N[C@@H](Cc1ccccc1)C(=O)O)OC)N(C)C(=O)[C@@H](NC(=O)C(C)(C)N(C)C)C(C)C` [#229] (X4-V[Dil][Dolaproine]F-OH) was run?
A: 10.2 nM

Q: What about the IC50 [2] of the same molecule?
A: 16.6 nM

Q: What about the IC50 [3] of the same molecule?
A: 18.4 nM

Q: For `CC[C@H](C)[C@@H]([C@@H](CC(=O)N1CCC[C@H]1[C@H](OC)[C@@H](C)C(=O)NCCC1C=CC=CC=C1)OC)N(C)C(=O)[C@@H](NC(=O)[C@@]1(F)CCNC1)C(C)C` [#184, N-[(3R,4S,5S)-1-{(2S)-2-[(1R,2R)-3-{[2-(cyclohepta-2,4,6-trien-1-yl)ethyl]amino}-1-methoxy-2-methyl-3-oxopropyl]pyrrolidin-1-yl}-3-methoxy-5-methyl-1-oxoheptan-4-yl]-N˜2˜-{[(3R)-3-fluoropyrrolidin-3-yl]carbonyl}-N-methyl-L-valinamide], which IC50 [1] is on record?
A: 3.43 nM

Q: What about the IC50 [2] of the same molecule?
A: 5.1 nM

Q: What about the IC50 [3] of the same molecule?
A: 2.48 nM

B1: ch75-MalPeg6C2-8261 (conjugate)
VH: QVKLLQSGAALVKPGASVKMSCKASGYAFTDYWVTWVKQSHGKSLEWIGEISPNSGGTNFNEKFKGKATLTVDKSTSTAYMELSRLTSEDSAIYYCTRGEIRYNWFAYWGQGTLVTVSS
VL: DIQMTQSPSSLSASVGDRVTITCKASQNVGNNIAWYQQKPGKAPKLLIYYASNRYTGVPSRFSGSGYGTDFTLTISSLQPEDFATYYCQRLYNSPFTFGGGTKVEIK
Q: For B1, which “IC50 (ng Ab/mL) ± S.E.M.” value [4] is on record?
A: 4255 ± 2375 ng Ab/mL

B2: ch75-me0131 (conjugate)
VH: QVKLLQSGAALVKPGASVKMSCKASGYAFTDYWVTWVKQSHGKSLEWIGEISPNSGGTNFNEKFKGKATLTVDKSTSTAYMELSRLTSEDSAIYYCTRGEIRYNWFAYWGQGTLVTVSS
VL: DIQMTQSPSSLSASVGDRVTITCKASQNVGNNIAWYQQKPGKAPKLLIYYASNRYTGVPSRFSGSGYGTDFTLTISSLQPEDFATYYCQRLYNSPFTFGGGTKVEIK
Q: With B2 as the molecule, how does the “IC50 (ng Ab/mL) ± S.E.M.” value [4] read?
A: 259 ng Ab/mL

B3: ch75-mc3377 (conjugate)
VH: QVKLLQSGAALVKPGASVKMSCKASGYAFTDYWVTWVKQSHGKSLEWIGEISPNSGGTNFNEKFKGKATLTVDKSTSTAYMELSRLTSEDSAIYYCTRGEIRYNWFAYWGQGTLVTVSS
VL: DIQMTQSPSSLSASVGDRVTITCKASQNVGNNIAWYQQKPGKAPKLLIYYASNRYTGVPSRFSGSGYGTDFTLTISSLQPEDFATYYCQRLYNSPFTFGGGTKVEIK
Q: B3 was tested. Which “IC50 (ng Ab/mL) ± S.E.M.” value [4] did it give?
A: 560 ng Ab/mL
